Assay results as given in patent publication US9089540B2, “Method for determination of sensitivity to anti-cancer agent” (KEIO UNIVERSITY, priority 2008, dated 2015).

What was measured:
[1] = human, in vivo, 100 mg/m2
[2] = system: 5 kinds of human colorectal cancer cell lines (COLO320, HCT-15, HT-29, LS174T, HCT116); assay: Evaluation of SN-38 sensitivity, MTS assay (cell survival rate); assay type: cell-based; conditions: 72 hours exposure, range over 5 cell lines, read-out: IC50 value of each cell line (SN-38 sensitivity)
Method: After exposure of each cell line to 0 to 1,000 μmol/Loxaliplatin for 48 hours, a cell survival rate was evaluated with MTS assay (CellTiter96™ AQueous One Solution Cell Proliferation Assay, Promega). Then, IC50 value (a concentration at which the number of cells is suppressed to 50% with respect to that in an oxaliplatin-untreated well) was calculated and used as an oxaliplatin sensitivity in each cell line. The evaluation of the sensitivity was performed four times with cells having different passage numbers and the average value and the standard deviation value thereof were calculated.
As cells, 5 kinds of human colorectal cancer cell lines (COLO320, HCT-15, HT-29, LS174T, HCT116 (HCT116 was obtained from ECACC)), and as a drug, an irinotecan active metabolite (SN-38, obtained from Yakult Honsha, Co., Ltd.) were used. The cell survival rate after exposure to 0 to 1,000 nmol/L SN-38 for 72 hours was evaluated by MTS assay in the same manner as in Example 1 and the IC50 value was calculated. […] For the analysis, ProteinChip™ Reader (Model PCS4000 Personal Edition, Bio-Rad) was used, and the analysis was performed under the following conditions: mass range, 0 to 70,000 daltons; focus mass, 11,000 daltons; energy, 3,000 nJ; and 265 shots in total per sample. […]

[3] = Clinical blood exposure to SN-38 after irinotecan administration, calculated from interview form parameters; assay type: in vivo, human
Method: Based on the pharmacokinetic parameters of SN-38 (Campto™, interview form), the area under the curve of SN-38 blood concentration (AUCSN-38) obtained after the first irinotecan administration of the colon cancer therapy regimen (180 mg/m^2/day) was calculated to be 1,449 nmol·h/L. The concentration of SN38 required to obtain the same exposure amount through 72-hour exposure employed in this Example was calculated to be 20 nM. Therefore, a cut off value was set to 20 nM for the IC50 value of each cancer cell line with respect to SN-38 and the cancer cell lines were classified into two groups of a high sensitivity group and a low sensitivity group. As a result, there was a significant increase in the peak intensity of the peak detected at m/z of 11,000 to 11,100 in the low sensitivity group (FIG. 6).

[4] = roughly corresponding to the cut off value; cited from earlier work

## N.N.[Cl][Pt][Cl] [cisplatin, cis-Diammineplatinum(II) dichrolide]
[1]
  Cmax: 9.5 to 11 µM

## CCc1c2c(nc3ccc(O)cc13)-c1cc3c(c(=O)n1C2)COC(=O)[C@]3(O)CC [SN-38]
[2]
  IC50: 3.39 to 33.7 nM
[3]; AUC equivalent over 72-hour exposure
  concentration of SN38 required to obtain the same exposure amount through 72-hour exposure: 0.02 µM
[3]; after first irinotecan administration of colon cancer regimen, 180 mg/m^2/day
  area under the curve of SN-38 blood concentration (AUCSN-38): 1,449 nmol·h/L

## O=C1[O][Pt]2([NH][C@@H]3CCCC[C@H]3[NH]2)[O]C1=O [oxaliplatin, (SP-4-2)-[(1R,2R)-cyclohexane-1,2-diamine-κN,κN′][ethanedioato (2-)-κO^1,κO^2]platinum]
[4]
  peak blood concentration at the time of clinical use: ~5.0 µM
